# “Also recorded” adds a separate entry of the source.
# Assays:
# [1] = biological target: T1, modified pBpa MjTyrRS/tRNATyrCUA (Methanocaldococcus jannaschii, UniProt Q57834, D158T/E107P/I159A/L65V/Q56R/V103L/Y32G); test: Incorporation into protein in response to TAG codon with modified pBpa synthetase (Ser159Ala, Leu65Val), SDS-PAGE; format: cell-based, Methanococcus jannaschii; settings: E. coli, modified pBpa synthetase (SEQ ID NO: 8), Ser159Ala and Leu65Val
# T1 construct: expressed in transfected cells; host or cells: E. coli
# T1 sequence (Q57834 whole entry Y32G/Q56R/L65V/V103L/E107P/D158T/I159A): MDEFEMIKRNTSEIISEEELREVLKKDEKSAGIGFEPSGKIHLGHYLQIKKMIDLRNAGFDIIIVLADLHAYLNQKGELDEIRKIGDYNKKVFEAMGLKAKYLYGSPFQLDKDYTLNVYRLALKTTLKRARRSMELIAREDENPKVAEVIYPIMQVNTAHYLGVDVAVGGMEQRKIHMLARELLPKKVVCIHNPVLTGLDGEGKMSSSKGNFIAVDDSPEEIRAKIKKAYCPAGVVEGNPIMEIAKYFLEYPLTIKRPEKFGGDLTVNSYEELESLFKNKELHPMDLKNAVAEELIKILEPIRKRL
# Description: (§1) To improve the incorporation efficiency of dfBpa, the active site of pBpa MjTyrRS was altered to better accommodate the slightly larger dfBpa amino acid. Amino acids in the active site (Ser159, Leu65) were reduced in size or reduced in polarity to better accept dfBpa.
# (§2) Analysis of fluorinated pBpa-protein by SDS-PAGE.
# [2] = test system: HDH; test: Photo crosslinking of protein upon ultraviolet irradiation, SDS-PAGE; settings: amino acid incorporated in protein
# Description: The amino acid pBpa in a protein may be used to determine the structural organization of the protein and conformational changes by initiating crosslinking with nearby peptides via externally provided ultraviolet irradiation. […] The time course of HDH-225pBpa and HDH-225-dfBpa during irradiation was studied by SDS-PAGE.
# [3] = biological target: T2, pBpa MjTyrRS/tRNATyrCUA (Methanocaldococcus jannaschii, UniProt Q57834, D158T/E107P/I159S/Q56R/V103L/Y32G); test: Incorporation into protein in response to TAG codon with pBpa synthetase, SDS-PAGE; format: cell-based, Methanococcus jannaschii; settings: E. coli, amino acid added to the media, pBpa synthetase (SEQ ID NO: 7)
# T2 construct: expressed in transfected cells; host or cells: E. coli carrying pDULE-pBpa
# T2 sequence (Q57834 whole entry Y32G/Q56R/V103L/E107P/D158T/I159S): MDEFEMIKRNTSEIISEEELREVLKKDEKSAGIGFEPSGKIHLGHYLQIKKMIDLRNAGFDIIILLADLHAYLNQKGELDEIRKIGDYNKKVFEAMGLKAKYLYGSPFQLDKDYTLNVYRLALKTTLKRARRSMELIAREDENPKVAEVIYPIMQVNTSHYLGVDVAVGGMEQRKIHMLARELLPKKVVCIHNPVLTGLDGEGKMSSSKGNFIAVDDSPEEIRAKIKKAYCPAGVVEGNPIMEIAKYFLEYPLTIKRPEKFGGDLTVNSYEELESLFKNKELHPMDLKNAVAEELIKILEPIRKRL
# Description: Incorporation of additional ^19F amino acids with p-benzoyl-phenylalanine (pBpa) synthetase. Using a synthetase known to selectively incorporate pBpa (SEQ ID NO: 7), other ^19F amino acids of similar shape and electrostatics may be incorporated site-specifically into proteins.
# Analysis of incorporation of p-fluorobenzoylphenylalanine into protein response to a TAG stop codon in E. coli with evolved pBpa MjTyrRS/tRNA TyrCUA by SDS-PAGE.
# as §1, §2
# [4] = test system: E. coli DH10B cells; settings: in vivo NMR cell samples
# Description: Labeled NTR was also monitored in vivo.
# E. coli DH10B cells containing pDule-tfmPhe1 and pTrc-NTR-124TAG or pTrc-NTR-36TAG were grown in modified minimal media containing supplemented flavin at 10 μM and induced to produce protein with 1.0 mM IPTG at an OD of 0.8. […] Cells were harvested 18 hrs after induction by centrifugation and stored at −80° C. Cells (from 0.5 L of media) for in vivo NMR measurements were thawed on ice, resuspended in 50 mL of PBS buffer (10 mM NaH2PO4, 140 mM NaCl pH 7.8) at 0° C., and repelleted by centrifugation at 5000 g. The cells for in vivo NMR spectra shown for NTR-tfmPhe-36 and NTR-tfmPhe-124 were washed 3 times and 5 times respectively.
# NMR data were collected using a Varian Unity INOVA 500 MHz spectrometer fitted with a 5 mm broadband probe. The proton coil was tuned to fluorine frequency (470.114 MHz). Standard decoupling parameters were used with a 100,000 Hz spectral width, 9 μs pulse length (approximately 45°), 2.00 s acquisition time, and 1.00 s relaxation delay. A 10 Hz line broadening was applied and all spectra were recorded at 25±0.2° C. All spectra were locked and referenced to an internal standard containing 0.2% solution of 4-fluorotoluene in toluene-d8 (set at −120.771 ppm referenced from trifluorotoluene at −65.000 ppm). […]
# [5] = test system: evolved tfmPhe MjTyrRS/tRNATyrCUA; test: Incorporation into protein in response to TAG codon with tfmPhe synthetase, SDS-PAGE; format: cell-based, Methanococcus jannaschii; settings: E. coli, amino acid added to the media
# Description: The two top performing synthetases were subcloned into the pDule vector (pDule-tfmPhe1 and pDule-tfmPhe2) for further analysis of a protein containing tfmPhe. The medium copy pDule plasmid is designed to contain both the tRNA^TyrCUA and new synthetase allowing a standard high copy protein expression plasmid for use in production of tfmPhe containing protein.
# Selection of tfmPhe specific tRNA-aminoacyl synthetase. A library of tRNA-aminoacyl synthetases was encoded on a kanamycin (Kn) resistant plasmid, pBK-JM-Lib, under control of the constitutive E. coli GlnRS promoter and terminator. The library was transformed by electroporation into DH10B E. coli containing the tetracycline (Tet) resistant positive selection plasmid, pREP2/YC-JYCUA. The positive selection plasmid encodes a mutant tRNA^TyrCUA, an amber disrupted chloramphenicol acetyltransferase, and an amber disrupted T7 RNA polymerase that drives the production of green fluorescent protein. The first positive selection was performed in the presence of 1 mM tfmPhe, 70 μg/mL chloramphenicol (Cm), 50 μg/mL Kn, and 25 μg/mL Tet in a modified GMML media at 37° C. with 250 rpm shaking until the OD was >1.0. Plasmid DNA was extracted and pBK-JM-Lib was separated from pREP2/YC-JYCUA by agarose gel electrophoresis. […]
smiles,measurement,setting,value
"N[C@@H](Cc1ccc(C(=O)c2c(F)cccc2F)cc1)C(=O)O [compound 6, 2′,6′-difluoro-p-benzoylphenylalanine]",incorporation into protein in response to TAG codon,[1]; listed as dfBpa,high efficiency; also recorded: length HDH was produced containing dfBpa
same,crosslinking upon irradiation,[2],shown to crosslink upon irradiation
same,incorporation into protein in response to TAG codon,[3],incorporated in the location coded by TAG; also recorded: less effectively than pBpa or 7
same,incorporation into protein in response to TAG codon,[3]; listed as dfBpa,full length HDH was produced containing dfBpa
"NC(=O)C1=CN([C@@H]2O[C@H](COP(=O)(O)OP(=O)(O)OC[C@H]3O[C@@H](n4cnc5c(N)ncnc54)[C@H](O)[C@@H]3O)[C@@H](O)[C@H]2O)C=CC1 [NADH, reduced nicotinamide adenine dinucleotide]",cell permeability,[4],poor cell permeability
"Cc1ccc(C[C@H](N)C(=O)O)cc1F [compound 4, 4-methyl-3-fluorophenylalanine]",incorporation into protein in response to TAG codon,[5],incorporated in the location coded by TAG; also recorded: full length HDH was produced containing 4
O=C(O)c1cccnc1 [nicotinic acid],cell permeability,[4],poor cell permeability
"N[C@@H](Cc1ccc(C(=O)c2ccccc2)cc1)C(=O)O [pBpa, p-benzoyl-phenylalanine, reference compound]",incorporation into protein in response to TAG codon,[1],high efficiency; also recorded: full length HDH was produced containing pBpa
same,incorporation into protein in response to TAG codon,[3],full length HDH was produced containing pBpa
"O=C(N[C@@H](Cc1ccc(F)cc1)C(=O)O)c1ccccc1 [compound 7, p-fluorobenzoylphenylalanine]",crosslinking upon irradiation,[2],shown to crosslink upon irradiation
same,incorporation into protein in response to TAG codon,[3],incorporated in the location coded by TAG
same,incorporation into protein in response to TAG codon,[3]; listed as pfBpa,full length HDH was produced containing pfBpa
